Reference: US7709516B2, “Helix 12 directed non-steroidal antiandrogens” (Endorecherche, Inc., priority 2005, dated 2010)
Where two headings read alike, the source gives them in different places.

Assays:
[1] = test system: rat prostate, seminal vesicle, levator ani muscle; assay: Systemic antiandrogenic activity in orchidectomized immature male rats with DHT implant; assay type: in vivo; settings: Rattus norvegicus, 168 h, rat +DHT, 0.5 mg/animal daily 7 days
Human Androgen Receptor = target: T1, Human Androgen Receptor (Homo sapiens, UniProt P10275); assay: Androgen receptor binding assay ([3H]R1881, HAP) in cytosol of HEK-293 cells transfected with hAR; settings: relative to R1881 = 100, transfected cells
T1 sequence (P10275 1-920): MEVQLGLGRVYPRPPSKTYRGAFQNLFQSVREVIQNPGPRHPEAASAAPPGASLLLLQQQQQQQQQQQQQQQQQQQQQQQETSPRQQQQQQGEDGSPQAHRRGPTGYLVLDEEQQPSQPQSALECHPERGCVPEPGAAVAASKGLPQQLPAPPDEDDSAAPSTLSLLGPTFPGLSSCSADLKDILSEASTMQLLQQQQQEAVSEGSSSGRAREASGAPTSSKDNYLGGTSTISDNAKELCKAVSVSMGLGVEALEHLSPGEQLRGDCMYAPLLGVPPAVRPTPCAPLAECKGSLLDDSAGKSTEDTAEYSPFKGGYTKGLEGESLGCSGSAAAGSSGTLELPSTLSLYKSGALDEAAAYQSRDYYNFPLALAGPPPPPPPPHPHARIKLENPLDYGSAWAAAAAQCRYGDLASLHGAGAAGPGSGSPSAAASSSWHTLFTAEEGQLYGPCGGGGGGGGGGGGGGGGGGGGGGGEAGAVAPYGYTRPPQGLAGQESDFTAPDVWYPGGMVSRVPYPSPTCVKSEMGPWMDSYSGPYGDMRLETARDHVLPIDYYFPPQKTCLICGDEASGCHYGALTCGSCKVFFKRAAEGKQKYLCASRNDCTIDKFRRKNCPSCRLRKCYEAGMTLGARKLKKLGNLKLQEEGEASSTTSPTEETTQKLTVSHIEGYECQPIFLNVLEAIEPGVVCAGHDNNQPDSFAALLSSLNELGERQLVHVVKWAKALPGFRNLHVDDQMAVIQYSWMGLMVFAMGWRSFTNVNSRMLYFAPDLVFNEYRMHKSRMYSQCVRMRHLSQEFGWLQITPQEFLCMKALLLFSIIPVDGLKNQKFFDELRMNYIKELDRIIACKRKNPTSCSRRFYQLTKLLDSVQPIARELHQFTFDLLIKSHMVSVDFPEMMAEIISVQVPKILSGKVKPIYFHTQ

[2] = test system: Shionogi mouse mammary carcinoma cells; assay: Androgenic/antiandrogenic activity: inhibition of DHT-stimulated Shionogi cell number; assay type: cell-based; settings: Mus musculus, DHT-stimulated Shionogi cell number
[3] = Prostate cell, po, read-out: Lev Ani % inhibition, Table 1, p.o, levator ani
[4] = Prostate cell, po, read-out: SV % inhibition, Table 1, p.o, seminal vesicle
[5] = po, read-out: Prostate % inhibition, Table 1, p.o
[6] = read-out: Shionogi Antiandrogenic Activity IC50, Table 1
[7] = read-out: Lev Ani % inhibition, Table 2, s.c. or p.o. (route not marked), levator ani
[8] = read-out: Prostate % inhibition, Table 2, s.c. or p.o. (route not marked)
[9] = read-out: SV % inhibition, Table 2, s.c. or p.o. (route not marked), seminal vesicle
[10] = read-out: Shionogi Antiandrogenic Activity IC50, Table 2

CC(=O)Nc1ccc(OCCCN2C(=S)N(c3ccc(C#N)c(C(F)(F)F)c3)C(=O)C2(C)C)cc1 [EM-8101]
inhibition in vivo at 0.5 mg [1, 3]: 43% | inhibition in vivo at 0.5 mg [1, 4]: 41% | inhibition in vivo at 0.5 mg [1, 5]: 8% | Human Androgen Receptor Binding (%) RBA R1881 = 100 (Human Androgen Receptor; Table 1): 12.1% | IC50 [2, 6]: 18.2 nM

CC1(C)C(=O)N(c2ccc(C#N)c(C(F)(F)F)c2)C(=S)N1CCCOc1ccc(S(=O)(=O)N2CCCC2)cc1 [EM-8103]
inhibition in vivo at 0.5 mg [1, 3]: 16% | inhibition in vivo at 0.5 mg [1, 4]: 37% | inhibition in vivo at 0.5 mg [1, 5]: 18% | Human Androgen Receptor Binding (%) RBA R1881 = 100 (Human Androgen Receptor; Table 1): 29.3% | IC50 [2, 6]: 41.5 nM

N#Cc1ccc(N2CCC(O)(CCOc3ccc(S(=O)(=O)N4CCCC4)cc3)CC2)cc1C(F)(F)F [EM-8130]
inhibition in vivo at 0.5 mg [1, 7]: 8% | inhibition in vivo at 0.5 mg [1, 8]: 15% | inhibition in vivo at 0.5 mg [1, 9]: 20% | Human Androgen Receptor Binding (%) RBA R1881 = 100 (Human Androgen Receptor; Table 2): 4.5% | IC50 [2, 10]: 28.3 nM

CC(C)S(=O)(=O)c1ccc(OCCCN2C(=S)N(c3ccc(C#N)c(C(F)(F)F)c3)C(=O)C2(C)C)cc1 [EM-8131]
inhibition in vivo at 0.5 mg [1, 3]: 47% | inhibition in vivo at 0.5 mg [1, 4]: 84% | inhibition in vivo at 0.5 mg [1, 5]: 47% | Human Androgen Receptor Binding (%) RBA R1881 = 100 (Human Androgen Receptor; Table 1): 9.3% | IC50 [2, 6]: 9.1 nM

CC(C)Sc1ccc(OCCCN2C(=S)N(c3ccc(C#N)c(C(F)(F)F)c3)C(=O)C2(C)C)cc1 [EM-8132]
inhibition in vivo at 0.5 mg [1, 3]: 67% | inhibition in vivo at 0.5 mg [1, 4]: 86% | inhibition in vivo at 0.5 mg [1, 5]: 47% | Human Androgen Receptor Binding (%) RBA R1881 = 100 (Human Androgen Receptor; Table 1): 1.0% | IC50 [2, 6]: 24 nM

CC1(C)C(=O)N(c2ccc(C#N)c(C(F)(F)F)c2)C(=S)N1CCCOc1ccc2c(c1)OCC2=O [EM-8154]
inhibition in vivo at 0.5 mg [1, 3]: 41% | inhibition in vivo at 0.5 mg [1, 4]: 42% | inhibition in vivo at 0.5 mg [1, 5]: 11% | Human Androgen Receptor Binding (%) RBA R1881 = 100 (Human Androgen Receptor; Table 1): 72.4% | IC50 [2, 6]: 17.1 nM

CC1(C)C(=O)N(c2ccc(C#N)c(C(F)(F)F)c2)C(=S)N1CCCOc1ccc(C(N)=O)cc1 [EM-8156]
inhibition in vivo at 0.5 mg [1, 3]: 47% | inhibition in vivo at 0.5 mg [1, 4]: 65% | inhibition in vivo at 0.5 mg [1, 5]: 32% | Human Androgen Receptor Binding (%) RBA R1881 = 100 (Human Androgen Receptor; Table 1): 17.5% | IC50 [2, 6]: 7.9 nM

COC1(CCOc2ccc(CN3CCCC3)cc2C)CCN(c2ccc(C#N)c(C(F)(F)F)c2)CC1 [EM-8157]
inhibition in vivo at 0.5 mg [1, 7]: 28% | inhibition in vivo at 0.5 mg [1, 8]: 25% | inhibition in vivo at 0.5 mg [1, 9]: 56% | Human Androgen Receptor Binding (%) RBA R1881 = 100 (Human Androgen Receptor; Table 2): <1.0% | IC50 [2, 10]: 54.3 nM

CC1(C)C(=O)N(c2ccc(C#N)c(C(F)(F)F)c2)C(=S)N1CCCOc1ccc2oc(=O)ccc2c1 [EM-8158]
inhibition in vivo at 0.5 mg [1, 3]: 32% | inhibition in vivo at 0.5 mg [1, 4]: 70% | inhibition in vivo at 0.5 mg [1, 5]: 38% | Human Androgen Receptor Binding (%) RBA R1881 = 100 (Human Androgen Receptor; Table 1): 88.8% | IC50 [2, 6]: 3.5 nM

CS(=O)(=O)c1ccc(OCCC2(O)CCN(c3ccc(C#N)c(C(F)(F)F)c3)CC2)cc1 [EM-8159]
inhibition in vivo at 0.5 mg [1, 7]: 23% | inhibition in vivo at 0.5 mg [1, 8]: 24% | inhibition in vivo at 0.5 mg [1, 9]: 51% | Human Androgen Receptor Binding (%) RBA R1881 = 100 (Human Androgen Receptor; Table 2): <1.0% | IC50 [2, 10]: 33.4 nM

CCS(=O)(=O)c1ccc(OCCCN2C(=S)N(c3ccc(C#N)c(C(F)(F)F)c3)C(=O)C2(C)C)cc1 [EM-8188]
inhibition in vivo at 0.5 mg [1, 3]: 68% | inhibition in vivo at 0.5 mg [1, 4]: 85% | inhibition in vivo at 0.5 mg [1, 5]: 45% | Human Androgen Receptor Binding (%) RBA R1881 = 100 (Human Androgen Receptor; Table 1): 15.6% | IC50 [2, 6]: 13.9 nM

CCCS(=O)(=O)c1ccc(OCCCN2C(=S)N(c3ccc(C#N)c(C(F)(F)F)c3)C(=O)C2(C)C)cc1 [EM-8225]
inhibition in vivo at 0.5 mg [1, 3]: 53% | inhibition in vivo at 0.5 mg [1, 4]: 79% | inhibition in vivo at 0.5 mg [1, 5]: 45% | Human Androgen Receptor Binding (%) RBA R1881 = 100 (Human Androgen Receptor; Table 1): 25.8% | IC50 [2, 6]: 22.4 nM

CC(C)S(=O)(=O)c1ccc(OCCC2(O)CCN(c3ccc(C#N)c(C(F)(F)F)c3)CC2)cc1 [EM-8228]
inhibition in vivo at 0.5 mg [1, 7]: 55% | inhibition in vivo at 0.5 mg [1, 8]: 32% | inhibition in vivo at 0.5 mg [1, 9]: 0% | Human Androgen Receptor Binding (%) RBA R1881 = 100 (Human Androgen Receptor; Table 2): <1.0% | IC50 [2, 10]: 45.1 nM
